Source: patent US4200578A, “Thiazole derivatives” (Bristol-Myers Company, priority 1978, dated 1980)
Read-outs that look alike come from different tables or passages of the source.

Legend:
[1] = target: T1, histamine H2-receptor (isolated guinea pig right atria) (Cavia porcellus, UniProt P47747); test: Histamine H2-receptor antagonism, isolated guinea pig right atria assay; settings: for Histamine ED50 with 95% confidence limits, after test compound: ED50 of histamine in presence of test compound 3 × 10^-5 M, 30 minute incubation, N = 8 (cimetidine), 2 (BL-6040, BL-6044); for potency as histamine H2-receptor antagonist compared with cimetidine: isolated guinea pig atria (in vitro); for Concentration-Response Curve Displacement Factor: test compound 3 × 10^-5 M
T1 construct: The spontaneously beating right atrium was dissected free from other tissues; from tissue; host or cells: spontaneously beating right atrium of male Hartley strain guinea pigs
T1 sequence (P47747 whole entry): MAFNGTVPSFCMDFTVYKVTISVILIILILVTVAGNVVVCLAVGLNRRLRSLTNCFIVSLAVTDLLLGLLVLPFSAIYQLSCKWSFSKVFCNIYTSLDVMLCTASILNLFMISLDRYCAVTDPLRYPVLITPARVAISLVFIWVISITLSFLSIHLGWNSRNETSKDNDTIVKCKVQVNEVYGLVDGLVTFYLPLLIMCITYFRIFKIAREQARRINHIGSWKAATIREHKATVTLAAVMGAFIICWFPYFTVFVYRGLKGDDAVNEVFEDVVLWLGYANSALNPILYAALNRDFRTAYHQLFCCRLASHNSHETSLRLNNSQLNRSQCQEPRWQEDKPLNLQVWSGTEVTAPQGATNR
Protocol: The present comparative studies were carried out using a modification of the procedure reported by Reinhardt et al., Agents and Actions, 4, 217 (1974).
Male Hartley strain guinea pigs (350-450 gm.) were sacrificed by a blow on the head. The heart was excised and placed in a Petri dish of oxygenated (95% O2, 5% CO2) modified Krebs solution (g./liter: NaCl 6.6, KCl 0.35, MgSO4.7 H2 O 0.295, KH2 PO4 0.162, CaCl2 0.238, NaHCO3 2.1 and dextrose 2.09). The spontaneously beating right atrium was dissected free from other tissues and a silk thread (4-0) attached to each end. The atrium was suspended in a 20 ml. muscle chamber containing oxygenated modified Krebs solution maintained at 32° C. Atrial contractions were recorded isometrically by means of a Grass FT 0.03 force displacement transducer and recordings of contractile force and rate were made with Beckman RP Dynograph.
A resting tension of 1 g. was applied to the atrium and it was allowed to equilibrate for 1 hour.
Concentration-response curve displacement factors were calculated as follows: [formula] The factors obtained for BL-6040 and BL-6044 were then expressed as ratios of the factor obtained for cimetidine. [formula]

[2] = system: gastric acid output; test: Gastric antisecretory activity in the two hour pylorus ligated (Shay) rat; format: in vivo, rat (male Long Evans); settings: for ED50: Rattus norvegicus, 2 h; for ED50 / Percent Inhibition Acid Output / Potency Ratio: ip; for potency as inhibitor of gastric acid secretion compared with cimetidine: rats (in vivo); for Potency Ratio: relative to cimetidine (1.0)
Source text: Determination of Gastric Antisecretory Activity in the Two Hour Pylorus Ligated (Shay) Rat
The pyloric ligation procedure in the rat was designed by Shay et al., Gastroenterology, 5, 53 (1945) for the study of perforating gastric ulcers; however, as the method became known, it was also employed as a means of studing rat gastric secretion, Shay et al., Gastroenterology, 26, 906 (1954), Brodie, D. A., Am. J. Dig. Dis., 11, 231 (1966). A modification of this procedure is presently used to evaluate compounds for gastric antisecretory activity.
Male Long Evans rats, 280-300 gm., are used. The animals are placed in individual cages and fasted for 24 hours with free access to water. Under ether anesthesia, the stomach is reached through a midline incision, and a cotton-thread ligature is placed around the pylorus. After wound closure, ether administration is stopped and either cimetidine, BL-6040, BL-6044 or vehicle is administered intraperitoneally in a volume of […]. All compounds are solubilized with one equivalent of HCl and brought to the proper volume with water. The animals are returned to their cages from which the water bottles have been removed and two hours later are sacrificed with ether. The stomach is removed and the two hour gastric collection is drained into a graduated test tube for volume determination. Titratable acidity is measured by titrating a one ml. sample to pH 7.0 with 0.02 NaOH, using an Autoburet and electrometric pH meter (Radiometer). Titratable acid output is calculated in microequivalents by mutiplying the volume in milliliters by the acid concentration in milliequivalents per liter. The percent inhibition of acid output is calculated as follows [formula]

[3] = system: histamine H2-receptor; settings: cited from earlier work
[4] = in vivo; cited from earlier work
[5] = cited from earlier work
[6] = system: peptic ulcer disease; settings: clinical evaluation; cited from earlier work
[7] = system: gastric secretion; settings: animals and man; cited from earlier work
[8] = inhibition of gastric acid output, two hours, read-out: ED50
[9] = inhibition of gastric acid output

Structure (SMILES) | Histamine ED50 with 95% confidence limits, after test compound [1] [µg/mL] | potency as histamine H2-receptor antagonist compared with cimetidine [1] | Concentration-Response Curve Displacement Factor [1] | ED50 [2, 8] [µmol/kg] | Percent Inhibition Acid Output ([2]; 5 μMole/kg, two hours) [%] | Percent Inhibition Acid Output ([2]; 10 μMole/kg, two hours) [%] | Percent Inhibition Acid Output ([2]; 20 μMole/kg, two hours) [%] | potency as inhibitor of gastric acid secretion compared with cimetidine [2] | Potency Ratio [2, 9] | H2-receptor antagonism [3] | toxicity (agranulocytosis) [4] | oral activity ([5]; man) | ED50 [2] [µmol/kg] | efficacy in the treatment of peptic ulcer disease [6] | half-life ([5]; in vivo) | inhibition of gastric secretion [7] | oral absorption ([5]; in vivo, po)
C#CCNC(=NCCSCc1nccs1)NC#N [BL-6044, N-Cyano-N'-(2-propyn-1-yl)-N"-{2-[(thiazol-2-yl)methylthio]ethyl}guanidine] | 14.25 | more potent than cimetidine | 43.18 | 5.73 | 52 | 58 | 73 | more potent than cimetidine | 2.11 | – | – | – | – | – | – | – | –
C/N=C(\S)NCCSCc1[nH]cnc1C [Metiamide] | – | – | – | – | – | – | – | – | – | more potent than burimamide | toxicity (agranulocytosis) | orally active in man | – | – | – | – | –
CN/C(=N/CCSCc1nc[nH]c1C)NC#N [Cimetidine, reference compound] | 4.80 | – | 25.26 | – | 26 | 45 | 76 | – | – | as effective an H2 antagonist as metiamide | without producing agranulocytosis | – | 12.1 | effective therapeutic agent in the treatment of peptic ulcer disease | relatively short | – | –
C#CCNC(=C[N+](=O)[O-])NCCSCc1nccs1 [BL-6040, 1-Nitro-2-(2-propynylamino)-2-{2-[(thiazol-2-yl)methylthio]ethylamino}ethylene] | 20.79 | more potent than cimetidine | 46.20 | 4.11 | 53 | 69 | 80 | more potent than cimetidine | 2.93 | – | – | – | – | – | – | – | –
CNC(=S)NCCCCc1cnc[nH]1 [Burimamide] | – | – | – | – | – | – | – | – | – | a competitive antagonist of these receptors | – | – | – | – | – | inhibits gastric secretion in animals and man | poor
